Results on 27 compounds are retold here after patent US8846673B2, “Azaindazoles as kinase inhibitors and use thereof” (Bristol-Myers Squibb Company, priority 2009, dated 2014).

Each structure is given as a SMILES string.

Sequence of human recombinant Btk (Q06187 whole entry): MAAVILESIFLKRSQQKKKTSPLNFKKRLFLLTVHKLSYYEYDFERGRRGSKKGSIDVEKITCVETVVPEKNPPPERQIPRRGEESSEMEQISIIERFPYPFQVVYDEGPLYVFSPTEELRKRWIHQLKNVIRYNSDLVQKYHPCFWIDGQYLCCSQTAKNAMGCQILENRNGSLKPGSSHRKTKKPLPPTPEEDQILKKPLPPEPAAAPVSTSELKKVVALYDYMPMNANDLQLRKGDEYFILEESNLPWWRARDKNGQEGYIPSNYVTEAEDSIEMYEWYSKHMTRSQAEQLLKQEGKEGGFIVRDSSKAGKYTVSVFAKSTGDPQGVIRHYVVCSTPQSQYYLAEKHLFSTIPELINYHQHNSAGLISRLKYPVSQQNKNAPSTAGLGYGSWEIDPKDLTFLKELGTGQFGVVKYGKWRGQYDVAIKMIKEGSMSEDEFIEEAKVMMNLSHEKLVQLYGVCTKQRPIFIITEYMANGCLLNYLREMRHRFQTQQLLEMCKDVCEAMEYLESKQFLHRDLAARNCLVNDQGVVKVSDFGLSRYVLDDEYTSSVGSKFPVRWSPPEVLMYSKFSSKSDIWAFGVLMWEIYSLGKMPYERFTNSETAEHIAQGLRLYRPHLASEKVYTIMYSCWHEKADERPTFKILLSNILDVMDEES
Sequence of Btk (pY551) in Ramos cells (Q06187 whole entry, the tested form may be a part): as the sequence (Q06187 whole entry) above

One experiment concerns the target human recombinant Btk (Homo sapiens (Human), UniProt Q06187). The experiment is described as follows: Human Recombinant Btk Enzyme Assay (LLE_Btk). Format: biochemical. The conditions noted are these: human recombinant Btk 1 nM, ATP 20 μM, 60 min room temperature. Here is the method: Human Recombinant Btk Enzyme Assay
After incubating at room temperature for 60 min, the reaction was terminated by adding 45 μl of 35 mM EDTA to each sample. The reaction mixture was analyzed on the Caliper LABCHIP® 3000 (Caliper, Hopkinton, Mass.) by electrophoretic separation of the fluorescent substrate and phosphorylated product. […] Compounds were dissolved at 10 mM in dimethylsulfoxide (DMSO) and evaluated at eleven concentrations.
Broadly, the IC50 is the concentration that inhibits the measured activity by half. `Nc1n[nH]c2c(-c3ccc4[nH]ccc4c3)ncc(-c3ccc(Oc4ccccc4)cc3)c12` [Example 95, 7-(1H-Indol-5-yl)-4-(4-phenoxyphenyl)-1H-pyrazolo[3,4-c]pyridin-3-amine]: the IC50 was 250 nM.

Regarding `COc1ccc(-c2cnc(Nc3ccccc3C)c3[nH]nc(N)c23)cc1` [Example 132, 4-(4-Methoxyphenyl)-N^7-(2-methylphenyl)-1H-pyrazolo[3,4-c]pyridine-3,7-diamine], the IC50 was 260 nM.

As to `Nc1n[nH]c2c(-c3ccc(NC(=O)c4ccccc4)cc3)ncc(-c3ccc(Oc4ccccc4)cc3)c12` [Example 61, N-(4-(3-Amino-4-(4-phenoxyphenyl)-1H-pyrazolo[3,4-c]pyridin-7-yl)phenyl)benzamide], the half-maximal inhibitory concentration (IC50) came to 14900 nM.

Regarding `CS(=O)(=O)Nc1cccc(-c2ncc(-c3ccc(Oc4ccccc4)cc3)c3c(N)n[nH]c23)c1` [Example 62, N-(3-(3-Amino-4-(4-phenoxyphenyl)-1H-pyrazolo[3,4-c]pyridin-7-yl)phenyl) methanesulfonamide], the half-inhibitory concentration (IC50) stood at 270 nM.

`Nc1n[nH]c2c(-c3cccc(C(F)(F)F)c3)ncc(-c3ccc(Oc4ccccc4)cc3)c12` [Example 108, 4-(4-Phenoxyphenyl)-7-(3-(trifluoromethyl)phenyl)-1H-pyrazolo[3,4-c]pyridin-3-amine]: the half-maximal inhibitory concentration (IC50) was 16100 nM.

For `COc1cccc(-c2cnc(Nc3ccccc3)c3[nH]nc(N)c23)c1` [Example 128, 4-(3-Methoxyphenyl)-N^7-phenyl-1H-pyrazolo[3,4-c]pyridine-3,7-diamine], the IC50 was 290 nM.

As for `COc1cccc(-c2cnc(Nc3ccccc3Cl)c3[nH]nc(N)c23)c1` [Example 130, N^7-(2-Chlorophenyl)-4-(3-methoxyphenyl)-1H-pyrazolo[3,4-c]pyridine-3,7-diamine], the IC50 came out at 230 nM.

On to `Nc1n[nH]c2cncc(-c3ccc(OC4CCCC4)cc3)c12` [Example 44, 4-(4-(Cyclopentyloxy)phenyl)-1H-pyrazolo[3,4-c]pyridin-3-amine], for which the IC50 was 9490 nM.

As for `Nc1n[nH]c2nc(-c3cccs3)nc(-c3ccc(Oc4ccccc4)cc3)c12` [Example 120, 4-(4-Phenoxyphenyl)-6-(2-thienyl)-1H-pyrazolo[3,4-δ]pyrimidin-3-amine], the IC50 came to 240 nM.

Turning to `Nc1n[nH]c2c(-c3ccccn3)cnc(-c3ccc(Oc4ccccc4)cc3)c12` [Example 225, 4-(4-Phenoxyphenyl)-7-(2-pyridinyl)-1H-pyrazolo[4,3-c]pyridin-3-amine], the IC50 was 1 nM.

Turning to `Nc1n[nH]c2c(-c3ccc(Cl)c(Cl)c3)ncc(-c3ccc(Oc4ccccc4)cc3)c12` [Example 82, 7-(3,4-Dichlorophenyl)-4-(4-phenoxyphenyl)-1H-pyrazolo[3,4-c]pyridin-3-amine], the IC50 was 9180 nM.

As to `Nc1n[nH]c2cc(C3CCN(C(=O)Nc4ccccc4)CC3)nc(-c3ccc(Oc4ccccc4)cc3)c12` [Example 242, 4-(3-Amino-4-(4-phenoxyphenyl)-1H-pyrazolo[4,3-c]pyridin-6-yl)-N-phenyl-1-piperidinecarboxamide], the IC50 turned out to be 2 nM.

With `C=CC(=O)N1CCCC(c2cc3[nH]nc(N)c3c(-c3ccc(Oc4ccccc4)cc3)n2)C1` (stereo not drawn) [Example 237, 6-(1-Acryloyl-3-piperidinyl)-4-(4-phenoxyphenyl)-1H-pyrazolo[4,3-c]pyridin-3-amine], the IC50 amounted to 4 nM.

As to `Nc1n[nH]c2cc(-c3ccc(-c4nnn[nH]4)cc3)nc(-c3ccc(Oc4ccccc4)cc3)c12` [Example 223, 4-(4-Phenoxyphenyl)-6-(4-(1H-tetrazol-5-yl)phenyl)-1H-pyrazolo[4,3-c]pyridin-3-amine], the IC50 worked out at 2 nM.

As for `COC(=O)C(=O)N1CCCC(c2cc3[nH]nc(N)c3c(-c3ccc(Oc4ccccc4)cc3)n2)C1` (stereo not drawn) [Example 238, Methyl(3-(3-amino-4-(4-phenoxyphenyl)-1H-pyrazolo[4,3-c]pyridin-6-yl)-1-piperidinyl)(oxo)acetate], the IC50 stood at 2 nM.

`Cc1csc(NC(=O)NC2CCN(c3cc(-c4ccc(Oc5ccccc5)cc4)c4c(N)n[nH]c4n3)C2)n1` (stereo not drawn) [Example 31, 1-(1-(3-Amino-4-(4-phenoxyphenyl)-1H-pyrazolo[3,4-b]pyridin-6-yl)-3-pyrrolidinyl)-3-(4-methyl-1,3-thiazol-2-yl)urea]: the IC50 is 9410 nM.

Regarding `Nc1n[nH]c2cc(C3CCCN(C(=O)Nc4ccccc4)C3)nc(-c3ccc(Oc4ccccc4)cc3)c12` (stereo not drawn) [Example 236, 3-(3-Amino-4-(4-phenoxyphenyl)-1H-pyrazolo[4,3-c]pyridin-6-yl)-N-phenyl-1-piperidinecarboxamide], the IC50 turned out to be 3 nM.

Turning to `CS(=O)(=O)Nc1ccc(-c2ncc(-c3ccc(Oc4ccccc4)cc3)c3c(N)n[nH]c23)cc1` [Example 96, N-(4-(3-Amino-4-(4-phenoxyphenyl)-1H-pyrazolo[3,4-c]pyridin-7-yl)phenyl)methanesulfonamide], the IC50 came to 280 nM.

Turning to `CC(C)Oc1ccc(-c2cncc3[nH]nc(N)c23)cc1` [Example 43, 4-(4-Isopropoxyphenyl)-1H-pyrazolo[3,4-c]pyridin-3-amine], the IC50 stood at 9310 nM.

With `Nc1n[nH]c2c(-c3cccc(OC(F)(F)F)c3)ncc(-c3ccc(Oc4ccccc4)cc3)c12` [Example 113, 4-(4-Phenoxyphenyl)-7-(3-(trifluoromethoxy)phenyl)-1H-pyrazolo[3,4-c]pyridin-3-amine], the IC50 is 13800 nM.

For the compound `Cc1ccccc1Nc1ncc(-c2cccc(OC(C)C)c2)c2c(N)n[nH]c12` [Example 137, 4-(3-Isopropoxyphenyl)-N^7-(2-methylphenyl)-1H-pyrazolo[3,4-c]pyridine-3,7-diamine], the IC50 came out at 240 nM.

`CC(C)COc1cccc(-c2ncc(-c3ccc(Oc4ccccc4)cc3)c3c(N)n[nH]c23)c1` [Example 102, 7-(3-Isobutoxyphenyl)-4-(4-phenoxyphenyl)-1H-pyrazolo[3,4-c]pyridin-3-amine]: the IC50 was 14000 nM.

For `Cc1cccc(Oc2ccc(-c3cc(C4CCCC4)nc4[nH]nc(N)c34)cc2)c1` [Example 5, 6-Cyclopentyl-4-(4-(3-methylphenoxy)phenyl)-1H-pyrazolo[3,4-b]pyridin-3-amine], the IC50 stood at 290 nM.

Take `Cc1ccccc1-c1ncc(-c2ccc(Oc3ccccc3)cc2)c2c(N)n[nH]c12` [Example 107, 7-(2-Methylphenyl)-4-(4-phenoxyphenyl)-1H-pyrazolo[3,4-c]pyridin-3-amine]: the IC50 was 12700 nM.

For the compound `Nc1n[nH]c2cncc(-c3ccc(C(=O)N4CCCC4)cc3)c12` [Example 47, 4-(4-(1-Pyrrolidinylcarbonyl)phenyl)-1H-pyrazolo[3,4-c]pyridin-3-amine], the IC50 was found to be 40600 nM.

Regarding `CN(C)C(=O)Cn1ccc(Nc2cc3[nH]nc(N)c3c(-c3ccc(Oc4ccccc4)cc3)n2)n1` [Example 249, 2-(3-((3-Amino-4-(4-phenoxyphenyl)-1H-pyrazolo[4,3-c]pyridin-6-yl)amino)-1H-pyrazol-1-yl)-N,N-dimethylacetamide], the IC50 was 3 nM.

Another experiment concerns the target Btk (pY551) in Ramos cells (Homo sapiens (Human), UniProt Q06187). As to the kind of experiment: Btk Phosphorylation Assay. In kind it is cell-based. To be noted: 1 hr preincubation, stimulated with anti-human IgM+IgG 50 μg/mL for 2 min. Here is the method: Btk Phosphorylation Assay
Ramos cells (˜6×10^6 cells/10 were incubated in the presence of Btk inhibitors for 1 hr at 37° C. before being stimulated with anti-human IgM+IgG (F(ab′)2 fragment, Jackson ImmunoResearch, Catalog No. 109-006-127) at 50 μg/mL for exactly 2 min at 37° C. Cells were immediately fixed by adding an equal volume of pre-warmed BD Phosflow Fix buffer I (BD Biosciences, catalog number 557870) to the cell suspension. After incubating at 37° C. for 10 minutes, the cells were washed once with 3 mL FACS washing buffer (1% FBS/PBS) and permeabilized by adding 0.5 mL of cold BD Phosflow Penn Buffer III (BD Biosciences, Catalog No. 558050) and incubating for 30 minutes on ice. The cells were washed an additional two times with 3 mL BD FACS washing buffer, re-suspended in 100 μL FACS washing buffer, stained with 20 μL, Alexa647 anti-Btk (pY551) (BD Biosciences, Catalog No. 558134), incubated at room temperature for 30 minutes in the dark, and washed once with 3 ml of FACS washing buffer. The cells were re-suspended in 400 μl FACS wash buffer and analyzed using FACSCalibur (BD Biosciences). Median fluorescent intensity (MFI) on Alexa 647 (FL-4) data were collected and used for calculations of inhibition.
`Nc1n[nH]c2nccc(-c3ccc(Oc4ccccc4)cc3)c12` [Example 6, 4-(4-Phenoxyphenyl)-1H-pyrazolo[3,4-b]pyridin-3-amine] came in with an IC50 of 320 nM.
